# According to US6846803B1, “Antagonists specific for the corticotropin-releasing factor receptor type 2 (CRFR2)” (priority 1998, dated 2005):
# Read-outs that look alike come from different tables or passages of the source. Residues, ends and D or L forms follow the SMILES beside them. No end group written: not given here.
# B1: ovine corticotropin-releasing factor (oCRF) (peptide)
# peptide: SQEPPISLDLTFHLLREVLEMTKADQLAQQAHSNRKLLDIA
# modifications: ends and bridges not checked
# notes: Synthetic peptide (Fmoc chemistry on TentaGel S RAM resin); also called compound 1
# Key:
# rCRFR1 [1] = target: T1, rCRFR1 (Rattus norvegicus, UniProt P35353); experiment: Displacement of [^125I-Tyr^0]oCRF from membranes of HEK-rCRFR1 cells; type: binding
# T1 construct: expressed in transfected cells; host or cells: HEK 293 cells, stably transfected (HEK-rCRFR1)
# T1 sequence (P35353 24-415): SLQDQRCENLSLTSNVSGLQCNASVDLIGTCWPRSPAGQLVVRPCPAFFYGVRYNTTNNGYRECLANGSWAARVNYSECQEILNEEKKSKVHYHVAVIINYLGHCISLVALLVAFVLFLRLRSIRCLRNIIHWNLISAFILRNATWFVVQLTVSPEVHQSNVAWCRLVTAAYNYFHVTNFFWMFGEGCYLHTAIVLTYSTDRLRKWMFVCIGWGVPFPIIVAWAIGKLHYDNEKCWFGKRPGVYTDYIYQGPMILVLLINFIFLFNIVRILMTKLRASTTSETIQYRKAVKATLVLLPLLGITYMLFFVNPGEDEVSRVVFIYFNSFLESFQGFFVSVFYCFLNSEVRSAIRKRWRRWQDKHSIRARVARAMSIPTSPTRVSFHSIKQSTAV
# Protocol: (§1) Binding assays were performed in 96-well MultiScreen plates (Millipore, Eschborn, Germany) with GF/B filters (pore size 1.0 μm). […] After incubation (60 min, 23° C.), membrane suspension was aspirated through the plate, followed by two washes with assay buffer (0.2 ml, 23°). Radioactivity of the punched filters was measured with a 1470 WIZARD automatic gamma counter (Berthold, Hannover). […] Statistical analysis was performed with ANOVA, and significant differences between groups were determined by post hoc comparison using the Dunn test.
# (§2) Membrane homogenates of human embryonic kidney (HEK) 293 cells stably transfected with cDNA coding for rat CRF receptor, type 1 (rCRFR1) or mouse CRF receptor, type 2β (mCRFR2β) were prepared according to standard protocols (see, e.g., Sambrook et al., Molecular Cloning: A Laboratory Manual, 2nd. Edition, Cold Spring Habor Laboratory Press, Cold Spring Habor, N.Y., 1989; Ausubel et al., Current Protocols in Molecular Biology, Green Publishing Associates and Wiley Interscience, NY, 1989).
# mCRFR2β [2] = target: T2, mCRFR2β (Mus musculus, UniProt Q60748); experiment: Displacement of [^125I-Tyr^0]Svg from membranes of HEK-mCRFR2β cells; type: binding; conditions: for Selectivity: Kd(rCRFR1)(peptide)/Kd(rCRFR1)(astressin) × Kd(mCRFR2β)(astressin)/Kd(mCRFR2β)(peptide)
# T2 construct: expressed in transfected cells; host or cells: HEK 293 cells, stably transfected (HEK-mCRFR2β); membrane homogenates
# Protocol: as §1, §2
# rCRFR1 [3] = target: T1, rCRFR1; experiment: cAMP stimulation / inhibition of oCRF-stimulated cAMP production in HEK-rCRFR1 cells; type: cell-based; conditions: for Emax: read-out: HEK-rCRFR1 cells rel. IA (relative intrinsic activity); for HEK-rCRFR1 cells rel. pot. (relative potency): oCRF alone = 1.00
# Protocol: (§3) HEK-rCRFR1 cells or HEK-mCRFR2β cells were incubated with different CRF agonists in the presence or absence of 1 μM or 10 nM antagonist, or CRF antagonist (c=1 μM) alone. After removal of the medium, cells were lyzed with aqueous 6% trichloroacetic acid (5 min, 100° C.) (Rühmann, A., A. K. E. Köpke, F. M. Dautzenberg, and J. Spiess, Proc. Natl. Acad. Sci. USA 93: 10609-10613, 1996). The cell lysates were stored at −70° C. until assayed with a RIA kit (Amersham, Little Chalfont). […] Statistical significance was determined across groups with ANOVA, and significant differences between groups were determined by post hoc comparison using the Dunn test.
# (§4) Intrinsic activities were measured at peptide concentrations generating maximal formation of cAMP in HEK-rCRFR1 or HEK-mCRFR2β cells.
# mCRFR2β [4] = target: T2, mCRFR2β; experiment: cAMP stimulation / inhibition of Svg-stimulated cAMP production in HEK-mCRFR2β cells; type: cell-based
# Protocol: as §3, §4
# Target sequence in this assay (Q60748 1-431 isoform Q60748-2): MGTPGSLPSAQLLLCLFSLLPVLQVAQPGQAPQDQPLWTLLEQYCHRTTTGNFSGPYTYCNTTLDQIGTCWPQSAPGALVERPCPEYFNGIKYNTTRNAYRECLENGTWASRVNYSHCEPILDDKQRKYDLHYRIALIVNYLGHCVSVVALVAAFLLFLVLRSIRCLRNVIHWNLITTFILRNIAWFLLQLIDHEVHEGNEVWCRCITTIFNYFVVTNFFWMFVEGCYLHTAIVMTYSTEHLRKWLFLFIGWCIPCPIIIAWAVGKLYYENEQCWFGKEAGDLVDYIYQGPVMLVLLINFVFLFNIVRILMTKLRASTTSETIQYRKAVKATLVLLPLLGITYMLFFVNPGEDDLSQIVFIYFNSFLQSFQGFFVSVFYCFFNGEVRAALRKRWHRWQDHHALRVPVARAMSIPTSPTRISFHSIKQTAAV
# [5] = target: T3, rat CRF receptor, type 1 (rCRFR1) (rat, UniProt P35353 24-415); experiment: cell-based or functional assay
# T3 sequence (looked up): T1 sequence (P35353 24-415)
# CRFR2α = target: T4, CRFR2α (Mus musculus, UniProt Q60748); conditions: BALB/c mice; brain area exclusively expressing CRF2α-mRNA; cited from earlier work
# T4 construct: from tissue; host or cells: lateral septum of BALB/c mice, in vivo
# T4 sequence (Q60748 whole entry): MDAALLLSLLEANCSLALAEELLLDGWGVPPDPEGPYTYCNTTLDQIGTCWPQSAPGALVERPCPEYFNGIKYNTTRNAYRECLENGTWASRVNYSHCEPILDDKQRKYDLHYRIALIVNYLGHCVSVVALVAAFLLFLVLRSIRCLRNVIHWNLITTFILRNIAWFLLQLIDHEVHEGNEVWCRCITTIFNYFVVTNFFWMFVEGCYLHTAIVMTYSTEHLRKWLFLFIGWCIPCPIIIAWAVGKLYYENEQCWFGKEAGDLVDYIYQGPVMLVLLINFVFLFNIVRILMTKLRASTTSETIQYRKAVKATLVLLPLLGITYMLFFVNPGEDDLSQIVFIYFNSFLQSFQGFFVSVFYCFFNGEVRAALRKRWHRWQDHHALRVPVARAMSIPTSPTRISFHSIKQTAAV
# [6] = target: T3, rat CRF receptor, type 1 (rCRFR1); experiment: cell-based or functional assay; remark: listed apart in the source
# [7] = target: T3, rat CRF receptor, type 1 (rCRFR1); experiment: displacement of [125I-Tyr0]oCRF from HEK-rCRFR1 membranes
# Protocol: as §1
# [8] = target: mouse CRF receptor, type 2β (mCRFR2β) (mouse) (UniProt Q60748); experiment: Kd(rCRFR1)/Kd(mCRFR2β) of the peptide normalised to that of astressin; radioligand displacement
# [9] = target: T3, rat CRF receptor, type 1 (rCRFR1); experiment: radioligand displacement; this end of the range tied by the Kd ratio of Table 3 (220.9/153.6)
# Protocol: as §1
# [10] = target: mouse CRF receptor, type 2β (mCRFR2β) (mouse) (UniProt Q60748); experiment: radioligand displacement; this end of the range tied by the Kd ratio of Table 3 (20.8/3.5)
# [11] = target: mouse CRF receptor, type 2β (mCRFR2β) (mouse) (UniProt Q60748); experiment: radioligand binding to membranes of HEK-mCRFR2β cells, displaced by Svg
# [12] = target: T3, rat CRF receptor, type 1 (rCRFR1); experiment: cell-based or functional assay; remark: listed apart in the source
# [13] = target: T3, rat CRF receptor, type 1 (rCRFR1); experiment: cell-based or functional assay; remark: listed apart in the source
# [14] = Table 4, 1 μM antagonist, cAMP production stimulated by 1 nM oCRF
molecule,measurement,setting,value
"CC[C@H](C)[C@H](NC(=O)[C@H](CC(=O)O)NC(=O)[C@H](CC(C)C)NC(=O)[C@H](CC(C)C)NC(=O)[C@H](CCCCN)NC(=O)[C@H](CCCNC(=N)N)NC(=O)[C@H](CC(N)=O)NC(=O)[C@H](CO)NC(=O)[C@H](Cc1c[nH]cn1)NC(=O)[C@H](C)NC(=O)[C@H](CCC(N)=O)NC(=O)[C@H](CCC(N)=O)NC(=O)[C@H](C)NC(=O)[C@H](CC(C)C)NC(=O)[C@H](CCC(N)=O)NC(=O)[C@H](CC(=O)O)NC(=O)[C@H](C)NC(=O)[C@H](CCCCN)NC(=O)[C@@H](NC(=O)[C@H](CCSC)NC(=O)[C@H](CCC(=O)O)NC(=O)[C@H](CC(C)C)NC(=O)[C@@H](NC(=O)[C@H](CCC(=O)O)NC(=O)[C@H](CCCNC(=N)N)NC(=O)[C@H](CC(C)C)NC(=O)[C@H](CC(C)C)NC(=O)[C@H](Cc1c[nH]cn1)NC(=O)[C@H](Cc1ccccc1)NC(=O)[C@@H](NC(=O)[C@H](CC(C)C)NC(=O)[C@H](CC(=O)O)NC(=O)[C@H](CC(C)C)NC(=O)[C@H](CO)NC(=O)[C@@H](NC(=O)[C@@H]1CCCN1C(=O)[C@@H]1CCCN1C(=O)[C@H](CCC(=O)O)NC(=O)[C@H](CCC(N)=O)NC(=O)[C@@H](N)CO)[C@@H](C)CC)[C@@H](C)O)C(C)C)[C@@H](C)O)C(=O)N[C@@H](C)C(N)=O [compound 1, oCRF, reference compound]",Kd,"rCRFR1 [1]; membranes of HEK-rCRFR1 cells, read-out: Kd, binding to rCRFR1",0.6 ± 0.1 nM
same,Selectivity,mCRFR2β [2]; Table 1,0.002
same,Kd,"mCRFR2β [2]; Table 1, [^125I-Tyr^0]Svg as competitive ligand, recombinant mCRFR2β, HEK 293 membranes, read-out: Kd(mCRFR2β)",162 ± 37.6 nM
same,Selectivity,mCRFR2β [2]; Table 3,0.002
same,Emax at 0.001 µM,"rCRFR1 [3]; Table 2, 1 μM CRF antagonist alone, cAMP production in HEK-rCRFR1 cells, oCRF (1 nM) = 1.00, read-out: rCRFR1 % IA (intrinsic activity)",100%
same,rCRFR1 relative in vitro potency,"rCRFR1 [3]; Table 2, 1 μM antagonist, cAMP production stimulated by 1 nM oCRF, oCRF alone = 1.00 (lower = stronger inhibition)",1.00
same,Emax,"rCRFR1 [3]; Table 4, 1 μM CRF antagonist alone, cAMP production, oCRF = 1.00",100%
same,HEK-rCRFR1 cells rel. pot. (relative potency),rCRFR1 [3]; [14],1.00
same,EC50,mCRFR2β [4]; agonist,11.8 ± 1.96 nM
α-helical CRF(9-41) (peptide),"% IA (intrinsic activity), cAMP production, HEK-rCRFR1 cells (relative, oCRF = 1.00)",[5],0.16
"CC[C@H](C)[C@H](NC(=O)[C@@H](NC(=O)[C@H](CC(=O)O)NC(=O)[C@H](CC(C)C)NC(=O)[C@H](CC(C)C)NC(=O)[C@H](CC(C)C)NC(=O)[C@H](CCCNC(=N)N)NC(=O)[C@H](CC(N)=O)NC(=O)[C@H](CC(N)=O)NC(=O)[C@H](C)NC(=O)[C@H](C)NC(=O)[C@H](CCC(N)=O)NC(=O)[C@H](CCC(N)=O)NC(=O)[C@H](CCCCN)NC(=O)[C@H](CCC(=O)O)NC(=O)[C@H](CCCCN)NC(=O)[C@H](CCC(=O)O)NC(=O)[C@H](CCC(N)=O)NC(=O)[C@H](CCCCN)NC(=O)[C@H](CCC(=O)O)NC(=O)[C@@H](NC(=O)[C@H](CCC(=O)O)NC(=O)[C@@H](NC(=O)[C@H](CCSC)NC(=O)[C@H](CCCCN)NC(=O)[C@H](CCCNC(=N)N)NC(=O)[C@H](CC(C)C)NC(=O)[C@H](CC(C)C)NC(=O)[C@@H](N)Cc1ccc(O)cc1)[C@@H](C)CC)[C@@H](C)CC)[C@@H](C)O)C(N)=O [compound 20, [Tyr^12]Svg(12-40)] (H-YLLRKMIEIEKQEKEKQQAANNRLLLDTI-NH2; N-terminus assumed)",Kd,rCRFR1 [1],995 ± 337 nM
same,Kd,mCRFR2β [2],428 ± 119 nM
same,high-affinity binding to mCRFR2β,mCRFR2β [2]; N-terminal truncation by one amino acid and Glu^12 to tyrosine,completely abolished
same,Selectivity,mCRFR2β [2]; Table 3,1.63
same,HEK-rCRFR1 cells rel. pot. (relative potency),rCRFR1 [3]; [14],0.90 ± 0.02
same,Emax,rCRFR1 [3],6 ± 3%
same,HEK-mCRFR2β cells rel. pot. (relative potency),"mCRFR2β [4]; Table 4, 10 nM antagonist, cAMP production stimulated by 1 nM Svg, Svg alone = 1.00",0.80 ± 0.04
same,Emax,mCRFR2β [4]; read-out: HEK-mCRFR2β cells rel. IA (relative intrinsic activity),0.6 ± 0.2%
"CC[C@H](C)[C@H](NC(=O)[C@@H](NC(=O)[C@H](CC(=O)O)NC(=O)[C@H](CC(C)C)NC(=O)[C@H](CC(C)C)NC(=O)[C@H](CC(C)C)NC(=O)[C@H](CCCNC(=N)N)NC(=O)[C@H](CC(N)=O)NC(=O)[C@H](CC(N)=O)NC(=O)[C@H](C)NC(=O)[C@H](C)NC(=O)[C@H](CCC(N)=O)NC(=O)[C@H](CCC(N)=O)NC(=O)[C@H](CCCCN)NC(=O)[C@H](CCC(=O)O)NC(=O)[C@H](CCCCN)NC(=O)[C@H](CCC(=O)O)NC(=O)[C@H](CCC(N)=O)NC(=O)[C@H](CCCCN)NC(=O)[C@H](CCC(=O)O)NC(=O)[C@@H](NC(=O)[C@H](CCC(=O)O)NC(=O)[C@@H](NC(=O)[C@H](CCSC)NC(=O)[C@H](CCCCN)NC(=O)[C@H](CCCNC(=N)N)NC(=O)[C@H](CC(C)C)NC(=O)[C@H](CC(C)C)NC(=O)[C@H](Cc1c[nH]cn1)NC(=O)[C@H](N)Cc1ccccc1)[C@@H](C)CC)[C@@H](C)CC)[C@@H](C)O)C(N)=O [[DPhe^11, His^12]Svg(11-40)]",inhibitory potency towards rCRFR1,"rCRFR1 [3]; HEK-rCRFR1 cells, difference significant",15 % of the potency of astressin
same,CRF-mediated behavioral effects in the lateral septum,CRFR2α,inhibited
"YHLLRKMIEIEKQEKEKQQAANNRLLLDTI (ends and bridges not checked, also called compound 18) [[Tyr^11, His^12]Svg(11-40)]","rel. IA (relative intrinsic activity), cAMP production, HEK-rCRFR1 cells",[6],"0.03 relative, oCRF = 1.00"
same,"rel. pot. (relative potency), inhibition of oCRF-stimulated cAMP production, HEK-rCRFR1 cells",[6],"0.79 relative, oCRF = 1.00"
same,Kd,[7],221 nM
same,Selectivity,[8],31.6
same,fold decrease of binding affinity against antisauvagine-30 (compound 11),[9],1.4 to 5.9 fold
"YELLRKMIEIEKQEKEKQQAANNRLLLDTI (ends and bridges not checked, also called compound 19) [[Tyr^11]Svg(11-40)]","rel. IA (relative intrinsic activity), cAMP production, HEK-rCRFR1 cells",[6],"0.09 relative, oCRF = 1.00"
same,"rel. pot. (relative potency), inhibition of oCRF-stimulated cAMP production, HEK-rCRFR1 cells",[6],"0.82 relative, oCRF = 1.00"
same,Kd,[7],977 nM
same,fold decrease of binding affinity against [DPhe^11]Svg(11-40) (compound 12),[10],1.4 to 5.9 fold
same,Selectivity,[8],33
YZGPPISIDLSLELLRKMIEIEKQEKEKQQAANNRLLLDTI (125I-iodinated Tyr at position 0) [[^125I-Tyr^0]Svg],specific binding,[11],94%
B1,"EC50, cAMP accumulation in HEK-rCRFR1 cells",[12],0.41 nM
same,"% IA (intrinsic activity), cAMP production, HEK-rCRFR1 cells",[13],"1 relative, oCRF = 1.00"
same,"rel. IA (relative intrinsic activity), cAMP production, HEK-rCRFR1 cells",[6],"1 relative, oCRF = 1.00"
same,Selectivity,[8],0.002
